Measured values as given in US7829665B2 (priority 2005, dated 2010).

These compounds were tested against T1, full-length NS3/NS4A-2 (HCV NS3 protease) (Hepatitis C virus genotype 1a, UniProt P27958) (assay: NS3-NS4 protease assay / NS3 inhibition assay (RETS1 substrate, fluorescence kinetic read)). Settings: not given.
T1 construct: Recombinant E. coli or Baculovirus full-length NS3 was diluted to 3.33 μM with assay buffer; made in house; host or cells: E. coli or baculovirus (BV) expression system
Type: biochemical
Procedure: NS3 complex formation with NS4A-2.
Recombinant E. coli or Baculovirus full-length NS3 was diluted to 3.33 μM with assay buffer and transferred material to an eppendorf tube and place in water bath in 4° C. refrigerator. The appropriate amount of NS4A-2 to 8.3 mM in assay buffer was added to equal the volume of NS3 in step 2.1.1 (conversion factor—3.8 mg/272 μL assay buffer). The material was transferred to an eppendorf tube and place in water bath in 4° C. refrigerator.
After equilibration to 4° C., equal volumes of NS3 and NS4A-2 solutions were combined in an eppendorf tube, mix gently with a manual pipettor, and incubate mixture for 15 minutes in the 4° C. water bath. Final concentrations in the mixture are 1.67 μM NS3, 4.15 mM NS4A-2 (2485-fold molar excess NS4A-2).
After 15 minutes at 4° C., the NS3/NS4A-2 eppendorf tube was removed and place it in a room temperature water bath for 10 minutes. NS3/NS4A-2 was alliquoted at appropriate volumes and store at −80° C. (E. coli NS3 run at 2 nM in assay, aliquot at 25 μL. BV NS3 run at 3 nM in assay, aliquot at 30 μL).
Sample compounds were dissolved to 10 mM in DMSO then diluted to 2.5 mM (1:4) in DMSO. Typically, compounds were added to an assay plate at 2.5 mM concentration, yielding upon dilution a starting concentration of 50 microM in the assay inhibition curve. Compounds were serial diluted in assay buffer to provide test solutions at lower concentrations.
The E. coli. NS3/NS4A-2 was diluted to 4 nM NS3 (1:417.5 of 1.67 μM stock−18 μL 1.67 μM stock+7497 μL assay buffer). The BV NS3/NS4A-2 was diluted to 6 nM NS3 (1:278.3 of 1.67 μM stock−24 μL 1.67 μM stock+6655 μL assay buffer). Using the manual multichannel pipettor, careful not to introduce bubbles into the plate, add 50 μL assay buffer to wells A01-H01 of a black Costar 96-well polypropylene storage plate.
Using the manual multichannel pipettor, careful not to introduce bubbles into the plate, add 50 μL of diluted NS3/NS4A-2 from step 2.2.6 to wells A02-H12 of plate in step 2.2.7. Using the manual multichannel pipettor, careful not to introduce bubbles into the plate, transfer 25 μL of the wells in drug dilution plate in step 2.2.5 to corresponding wells in assay plate in step 2.2.8. Change tips on multichannel pipettor for each row of compounds transferred. Using the manual multichannel pipettor, careful not to introduce bubbles into the plate, mix the wells from the assay plate in step 2.2.9 by aspirating and dispensing 35 μL of the 75 μL in each well five times. Change tips on multichannel pipettor for each row of wells mixed. Cover plate with a polystyrene plate lid and pre-incubate the plate from step 2.2.10 containing NS3 protease and sample compounds 10 minutes at room temperature. While plate from step 2.2.11 is pre-incubating, dilute RETS1 substrate in a 15 mL polypropylene centrifuge tube. Dilute RETS1 substrate to 8 μM (1:80.75 of 646 μM stock−65 μL 646 μM stock+5184 μL assay buffer).
After the plate in step is done pre-incubating, and using the manual multichannel, add 25 μL of substrate to all wells on the plate. Quickly mix the plate as in step 2.2.10, mixing 65 μL of the 100 μL in the wells.
Read the plate in kinetic mode on the Molecular Devices SpectraMax Gemini XS plate reader. Reader settings: Read time: 30 minutes, Interval: 36 seconds, Reads: 51, Excitation λ: 335 nm, Emission λ: 495 nm, cutoff: 475 nm, Automix: off, Calibrate: once, PMT: high, Reads/well: 6, Vmax pts: 21 or 28/51 depending on length of linearity of reaction
IC50 s are determined using a four parameter curve fit equation, and converted to Ki's using the following Km's: • Full-length E. coli NS3—2.03 μM • Full-length BV NS3—1.74 μM where Ki=IC50/(1+[S]/Km)) • Quantitation by ELISA of the selectable marker protein, Neomycin phosphotransferase II (NPTII) in the HCV Sub-Genomic Replicon, GS4.3

T1 sequence (P27958 1027-1657): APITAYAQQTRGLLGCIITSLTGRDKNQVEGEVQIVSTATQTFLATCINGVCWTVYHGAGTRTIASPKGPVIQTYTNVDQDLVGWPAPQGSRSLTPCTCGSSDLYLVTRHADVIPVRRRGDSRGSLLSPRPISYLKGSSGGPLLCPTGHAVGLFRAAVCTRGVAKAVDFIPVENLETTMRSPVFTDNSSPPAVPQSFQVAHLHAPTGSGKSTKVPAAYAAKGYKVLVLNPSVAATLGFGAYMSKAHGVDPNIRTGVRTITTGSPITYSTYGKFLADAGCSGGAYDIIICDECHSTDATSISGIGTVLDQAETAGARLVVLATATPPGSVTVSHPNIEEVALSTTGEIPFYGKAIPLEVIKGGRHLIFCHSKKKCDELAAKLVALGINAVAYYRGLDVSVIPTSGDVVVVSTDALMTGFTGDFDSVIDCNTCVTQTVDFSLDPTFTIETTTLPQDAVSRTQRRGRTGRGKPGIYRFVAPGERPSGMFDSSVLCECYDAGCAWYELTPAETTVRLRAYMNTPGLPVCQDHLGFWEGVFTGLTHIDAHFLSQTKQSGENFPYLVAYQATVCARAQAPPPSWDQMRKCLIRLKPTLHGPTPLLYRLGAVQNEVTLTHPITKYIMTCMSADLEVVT

Work on `CC(C)(C)OC(=O)N[C@H]1CCC(O)CC/C=C\[C@@H]2C[C@@]2(C(=O)NS(=O)(=O)C2CC2)NC(=O)[C@@H]2C[C@@H](OC(=O)N3Cc4cccc(F)c4C3)CN2C1=O` (stereo partly shown) [Compound 1018] yielded an IC50 of under 0.1 µM.

Same assay, conditions: Table 22; read-out: NS3-NS4 IC50

`CC(C)(C)OC(=O)N[C@H]1CCCCC/C=C\[C@@H]2C[C@@]2(C(=O)NCC#N)NC(=O)[C@@H]2CCCN2C1=O` [Compound 2322] and `CC(C)(C)OC(=O)NC1CCCCCC=CC2CC2(C(=O)NCc2cccc(Cl)c2)NC(=O)C2CCCN2C1=O` (stereo not shown) [Compound 2309] cannot be ordered by IC50: under 0.1 µM for the first, under 1 µM for the second.

Same assay, conditions: Table 24; read-out: NS3-NS4 IC50

Compound `C[C@H](NC(=O)[C@@]12C[C@H]1/C=C\CCCCC[C@H](NC(=O)OC(C)(C)C)C(=O)N1C[C@H](OC(=O)N3Cc4ccccc4C3)C[C@H]1C(=O)N2)c1ccccc1` [Compound 2502] has an IC50 of over 10 µM.

Same assay, conditions: recombinant E. coli or Baculovirus full-length NS3 with NS4A-2; read-out: NS3-NS4 IC50

First: CC(C)(C)OC(=O)N[C@H]1CCCCC/C=C\[C@@H]2C[C@@]2(C(=O)NS(=O)(=O)Nc2ccc(Cl)cc2Cl)NC(=O)[C@@H]2CCCN2C1=O [Compound 410]
Second: Cc1ccc(NS(=O)(=O)NC(=O)[C@@]23C[C@H]2/C=C\CCCCC[C@H](NC(=O)OC(C)(C)C)C(=O)N2CCC[C@H]2C(=O)N3)cc1 [Compound 2243]
The IC50 of the first is higher: over 10 µM for the first, under 1 µM for the second. The second is the more potent here.

`CC(C)(C)OC(=O)NC1CCCCCCCC=CC2CC2(C(=O)NS(=O)(=O)c2ccccc2)NC(=O)C2CCCN2C1=O` (stereo not shown) [Compound 2101] and `CC(C)(C)OC(=O)N[C@H]1CCCCC/C=C\[C@@H]2C[C@@]2(C(=O)NS(=O)(=O)c2ccccc2F)NC(=O)[C@@H]2CCCN2C1=O` [Compound 2124] cannot be ordered by IC50: under 10 µM for the first, under 10 µM for the second.

`CC(C)(C)OC(=O)N[C@H]1CCCCC/C=C\[C@@H]2C[C@@]2(C(=O)N[S@+]([O-])C(C)(C)C)NC(=O)[C@@H]2CCCN2C1=O` [Compound 2404] and `Cc1ccc([S@@+]([O-])NC(=O)[C@@]23C[C@H]2/C=C\CCCCC[C@H](NC(=O)OC(C)(C)C)C(=O)N2CCC[C@H]2C(=O)N3)cc1` [Compound 2403] cannot be ordered by IC50: under 1 µM for the first, under 1 µM for the second.

`CN1CCN(S(=O)(=O)NC(=O)[C@@]23C[C@H]2/C=C\CCCCC[C@H](NC(=O)OC(C)(C)C)C(=O)N2CCC[C@H]2C(=O)N3)CC1` [Compound 2208] and `CC1CCCN1S(=O)(=O)NC(=O)[C@@]12C[C@H]1/C=C\CCCCC[C@H](NC(=O)OC(C)(C)C)C(=O)N1CCC[C@H]1C(=O)N2` (stereo partly shown) [Compound 2250] cannot be ordered by IC50: under 1 µM for the first, under 10 µM for the second.

`CC(C)(C)OC(=O)N[C@H]1CCCCC/C=C\[C@@H]2C[C@@]2(C(=O)NS(=O)(=O)C2(Cc3ccccc3)CC2)NC(=O)[C@@H]2CCCN2C1=O` [Compound 301] and `CC(C)(C)OC(=O)N[C@H]1CCCCC/C=C\[C@@H]2C[C@@]2(C(=O)NS(=O)(=O)C2(C)CC2)NC(=O)[C@@H]2CCCN2C1=O` [Compound 300, (1S,4R,6S,14S) tert-butyl 4-Cyclopropanesulfonylaminocarbonyl-2,15-dioxo-3,16-diaza-tricyclo[14.3.0.0^4,6]nonadec-7-ene-14-yl carbamate] cannot be ordered by IC50: under 10 µM for the first, under 1 µM for the second.

Compared with `CCOC(=O)[C@@]12C[C@H]1/C=C\CCCCC[C@H](N)C(=O)N1C[C@H](OC(=O)N3Cc4ccc(OCCN5CCOCC5)cc4C3)C[C@H]1C(=O)N2` [Compound 126], `CCOC(=O)[C@@]12C[C@H]1/C=C\CCCCC[C@H](NC(=O)OC(C)(C)C)C(=O)N1C[C@H](OC(=O)N3Cc4ccc(OCCN(C)C)cc4C3)C[C@H]1C(=O)N2` [Compound 127] is lower in IC50: over 10 µM for the first, under 10 µM for the second. The second is the more potent here.

`CC(C)(C)OC(=O)N[C@H]1CCCCC/C=C\[C@@H]2C[C@@]2(C(=O)NS(=O)(=O)Cc2ccccc2Cl)NC(=O)[C@@H]2CCCN2C1=O` [Compound 2117] and `CN(c1ccccc1Cl)S(=O)(=O)NC(=O)[C@@]12C[C@H]1/C=C\CCCCC[C@H](NC(=O)OC(C)(C)C)C(=O)N1CCC[C@H]1C(=O)N2` [Compound 405] cannot be ordered by IC50: under 1 µM for the first, under 10 µM for the second.

`CC(C)S(=O)(=O)NC(=O)[C@@]12C[C@H]1/C=C\CCCCC[C@H](NC(=O)OC1CCCC1)C(=O)N1C[C@H](OC(=O)N3CCc4ccccc4C3)C[C@H]1C(=O)N2` [Compound 118] and `CS(=O)(=O)NC(=O)[C@@]12C[C@H]1/C=C\CCCCC[C@H](NC(=O)OC1CCCC1)C(=O)N1C[C@H](OC(=O)N3CCc4ccccc4C3)C[C@H]1C(=O)N2` [Compound 119] cannot be ordered by IC50: under 0.1 µM for the first, under 0.1 µM for the second.

`O=C(N[C@H]1CCCCC/C=C\[C@@H]2C[C@@]2(C(=O)O)NC(=O)[C@@H]2CCCN2C1=O)C1CC1` [Compound 315] and `CC(=O)N[C@H]1CCCCC/C=C\[C@@H]2C[C@@]2(C(=O)NS(=O)(=O)C2CC2)NC(=O)[C@@H]2CCCN2C1=O` [Compound 316] cannot be ordered by IC50: under 10 µM for the first, under 10 µM for the second.

`CC(C)(C)OC(=O)N[C@H]1CCCCC/C=C\[C@@H]2C[C@@]2(C(=O)NS(=O)(=O)C2CC2)NC(=O)C2Cc3ccccc3CN2C1=O` (stereo partly drawn) [Compound 2009, tert-Butyl (1aS,9S,19aR,Z)-19a-(cyclopropylsulfonylcarbamoyl)-10,18-dioxo-1a,4,5,6,7,8,9,10,12,17,17a,18,19,19a-tetradecahydro-1H-11,14-diaza-bicyclo[13.1.0]hexadeca-1(15),2-dieno[11,12-b]isoquinolin-9-ylcarbamate] and `CN(Cc1ccc(Cl)cc1)S(=O)(=O)NC(=O)[C@@]12C[C@H]1/C=C\CCCCC[C@H](NC(=O)OC(C)(C)C)C(=O)N1CCC[C@H]1C(=O)N2` [Compound 2230] cannot be ordered by IC50: under 10 µM for the first, under 10 µM for the second.

`CC(C)(C)OC(=O)N[C@H]1CCCCC/C=C\[C@@H]2C[C@@]2(C(=O)NCC(O)(C(F)(F)F)C(F)(F)F)NC(=O)[C@@H]2CCCN2C1=O` [Compound 503] and `CC(C)(C)OC(=O)N[C@H]1CCCCC/C=C\[C@@H]2C[C@@]2(C(=O)NCc2ccccn2)NC(=O)[C@@H]2CCCN2C1=O` [Compound 500] cannot be ordered by IC50: over 10 µM for the first, over 10 µM for the second.

`CC(C)(C)CC(=O)N[C@H]1CCCCC/C=C\[C@@H]2C[C@@]2(C(=O)NS(=O)(=O)C2CC2)NC(=O)C2CCCN2C1=O` (stereo partly shown) [Compound 2141] and `COC[C@@H]1CCCN1S(=O)(=O)NC(=O)[C@@]12C[C@H]1/C=C\CCCCC[C@H](NC(=O)OC(C)(C)C)C(=O)N1CCC[C@H]1C(=O)N2` [Compound 2252] cannot be ordered by IC50: under 10 µM for the first, under 1 µM for the second.

First: COC(=O)c1csc(S(=O)(=O)NC(=O)[C@@]23C[C@H]2/C=C\CCCCC[C@H](NC(=O)OC(C)(C)C)C(=O)N2CCC[C@H]2C(=O)N3)c1OC [Compound 310]
Second: COC[C@H]1CCCN1S(=O)(=O)NC(=O)[C@@]12C[C@H]1/C=C\CCCCC[C@H](NC(=O)OC(C)(C)C)C(=O)N1CCC[C@H]1C(=O)N2 [Compound 2251]
The IC50 of the first is higher: over 10 µM for the first, under 0.1 µM for the second.

`O=C(N[C@H]1CCC(F)(F)CC/C=C\[C@@H]2C[C@@]2(C(=O)NS(=O)(=O)C2CC2)NC(=O)[C@@H]2C[C@@H](OC(=O)N3Cc4cccc(F)c4C3)CN2C1=O)OC1CCCC1` [Compound 1005] and `CCCNC(=O)[C@@]12C[C@H]1/C=C\CCCCC[C@H](NC1CCC1)C(=O)N1C[C@H](OC(=O)N3Cc4cccc(F)c4C3)C[C@H]1C(=O)N2` [Compound 623] cannot be ordered by IC50: under 0.1 µM for the first, under 10 µM for the second.

First: CC(C)(C)OC(=O)N[C@H]1CCCCC/C=C\[C@@H]2C[C@@]2(C(=O)NS(=O)(=O)Nc2ccc(C(F)(F)F)cc2)NC(=O)[C@@H]2CCCN2C1=O [Compound 2235]
Second: CN(C)CCNC(=O)[C@@]12C[C@H]1/C=C\CCCCC[C@H](NC(=O)OC(C)(C)C)C(=O)N1C[C@H](OC(=O)N3Cc4cccc(F)c4C3)C[C@H]1C(=O)N2 [Compound 608]
The IC50 of the first is lower: under 1 µM for the first, over 10 µM for the second. The first is the more potent here.
